# Measurements as given in PubChem BioAssay AID330 (DTP/NCI, 2004).
# Values joined by “and” are separate entries in the source; they are usually repeats but may differ in a detail not shown here. Equal entries are not always repeated. Inconclusive results and toxic doses are left out.
# Test system: P388 leukemia ip, CD2F1 mice, survival T/C
# Test: NCI In Vivo Anticancer Drug Screen. Data for tumor model P388 Leukemia (intraperitoneal) in CD2F1 (CDF1) mice
# Conditions: endpoint: median survival time, higher = longer survival
# In short: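 Mice carrying the transplanted tumor received test compound or vehicle. Survival was recorded in each group, and the value is the treated-group measurement divided by that of the vehicle-treated control group.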
# [1] = dose: 60.0 mg/kg/injection, schedule: Q01DX005 (ip), vehicle: saline with Tween-80
# [2] = dose: 120.0 mg/kg/injection, schedule: Q01DX005 (ip), vehicle: saline with Tween-80
# [3] = dose: 240.0 mg/kg/injection, schedule: Q01DX005 (ip), vehicle: saline with Tween-80
# [4] = dose: 50.0 mg/kg/injection, schedule: Q01DX009 (ip), vehicle: saline with Tween-80
# [5] = dose: 50.0 mg/kg/injection, schedule: Q01DX009 (ip), vehicle: Klucel (hydroxypropylcellulose) (HPC)
# [6] = dose: 100.0 mg/kg/injection, schedule: Q01DX009 (ip), vehicle: Klucel (hydroxypropylcellulose) (HPC)
# [7] = dose: 12.5 mg/kg/injection, schedule: Q01DX009 (ip), vehicle: saline with Tween-80
# [8] = dose: 25.0 mg/kg/injection, schedule: Q01DX009 (ip), vehicle: other
# [9] = dose: 25.0 mg/kg/injection, schedule: Q01DX009 (ip), vehicle: saline with Tween-80
# [10] = dose: 50.0 mg/kg/injection, schedule: Q01DX009 (ip), vehicle: other
# [11] = dose: 100.0 mg/kg/injection, schedule: Q01DX009 (ip), vehicle: other
smiles,measurement,setting,value
COC(=O)C1(CS(C)(=O)=O)NC(=S)NC(=O)C1C#N (configuration not stated),T/C,"dose: 60.0 mg/kg/injection, schedule: Q01DX005 (ip), vehicle: saline",97 % of control
same,T/C,"dose: 120.0 mg/kg/injection, schedule: Q01DX005 (ip), vehicle: saline",91 % of control
same,T/C,"dose: 240.0 mg/kg/injection, schedule: Q01DX005 (ip), vehicle: saline",91 % of control
COc1cc(C2c3c(oc4ccccc4c3=O)Oc3oc4ccccc4c(=O)c32)cc(OC)c1OC,T/C,[1],86 % of control
same,T/C,[2],87 % of control
CNC(=O)Nc1cc2ccccc2o1,T/C,"dose: 100.0 mg/kg/injection, schedule: Q04DX003 (ip), vehicle: saline with Tween-80",110 % of control
same,T/C,"dose: 200.0 mg/kg/injection, schedule: Q04DX003 (ip), vehicle: saline with Tween-80",100 % of control
same,T/C,"dose: 400.0 mg/kg/injection, schedule: Q04DX003 (ip), vehicle: saline with Tween-80",105 % of control
CCCCC1(C(O)CC)Sc2ccccc2N1C (configuration not stated),T/C,[1],100 % of control
same,T/C,[2],101 % of control
same,T/C,[3],110 % of control
CCCCOC(=O)NC(=O)c1cc2ccc(N(CC)CC)cc2oc1=O,T/C,[1],95 % of control
same,T/C,[2],87 % of control
same,T/C,[3],87 % of control
C/C(=N\N)c1nc2ccccc2[nH]1,T/C,"dose: 15.0 mg/kg/injection, schedule: Q01DX005 (ip), vehicle: saline with Tween-80",101 % of control
same,T/C,"dose: 30.0 mg/kg/injection, schedule: Q01DX005 (ip), vehicle: saline with Tween-80",101 % of control
same,T/C,"dose: 60.0 mg/kg/injection, schedule: Q01DX005 (ip), vehicle: Klucel (hydroxypropylcellulose) (HPC)",100 % of control
same,T/C,[1],108 % of control
CC(=O)Nc1ccc(S(=O)(=O)Nc2cnccn2)cc1,T/C,"dose: 100.0 mg/kg/injection, schedule: Q01DX001 (ip), vehicle: saline with Tween-80",93 % of control
CCC1(CC)C(=O)ON(C(C)(C)N2OC(=O)C(CC)(CC)C2=O)C1=O,T/C,"dose: 50.0 mg/kg/injection, schedule: Q01DX005 (ip), vehicle: Klucel (hydroxypropylcellulose) (HPC)",102 % of control
same,T/C,"dose: 100.0 mg/kg/injection, schedule: Q01DX005 (ip), vehicle: Klucel (hydroxypropylcellulose) (HPC)",104 % of control
same,T/C,"dose: 200.0 mg/kg/injection, schedule: Q01DX005 (ip), vehicle: Klucel (hydroxypropylcellulose) (HPC)",96 % of control
FC(F)(F)COP(c1ccccc1)c1ccccc1,T/C,"dose: 50.0 mg/kg/injection, schedule: Q01DX005 (ip), vehicle: saline with Tween-80",113 % of control
same,T/C,"dose: 100.0 mg/kg/injection, schedule: Q01DX005 (ip), vehicle: saline with Tween-80",111 % of control
same,T/C,"dose: 200.0 mg/kg/injection, schedule: Q01DX005 (ip), vehicle: saline with Tween-80",114 % of control
C1=CN2C(c3ccccc3)=NON(c3ncccn3)C2N=C1 (configuration not stated),T/C,[1],96 % of control
same,T/C,[2],91 % of control
same,T/C,[3],90 % of control
CCCC/C(C)=N/NC(=S)SC,T/C,"dose: 3.12 mg/kg/injection, schedule: Q01DX009 (ip), vehicle: saline",100 % of control
same,T/C,"dose: 6.25 mg/kg/injection, schedule: Q01DX009 (ip), vehicle: saline",106 % of control
same,T/C,"dose: 12.5 mg/kg/injection, schedule: Q01DX009 (ip), vehicle: saline",100 % of control
O=C(O)CCC(=O)OC(C1CO1)C(OC(=O)CCC(=O)O)C1CO1 (configuration not stated),T/C,"dose: 2.5 mg/kg/injection, schedule: Q01DX009 (ip), vehicle: saline",90 % of control
same,T/C,"dose: 2.5 mg/kg/injection, schedule: Q01DX009 (ip), vehicle: sodium bicarbonate",103 % of control
same,T/C,"dose: 5.0 mg/kg/injection, schedule: Q01DX009 (ip), vehicle: saline",116 % of control
same,T/C,"dose: 5.0 mg/kg/injection, schedule: Q01DX009 (ip), vehicle: sodium bicarbonate",101 % of control
same,T/C,"dose: 10.0 mg/kg/injection, schedule: Q01DX009 (ip), vehicle: sodium bicarbonate",120 % of control
same,T/C,"dose: 20.0 mg/kg/injection, schedule: Q01DX009 (ip), vehicle: saline",153 % of control
same,T/C,"dose: 20.0 mg/kg/injection, schedule: Q01DX009 (ip), vehicle: sodium bicarbonate",122 % of control
same,T/C,"dose: 40.0 mg/kg/injection, schedule: Q01DX009 (ip), vehicle: saline",167 % of control
same,T/C,"dose: 80.0 mg/kg/injection, schedule: Q01DX009 (ip), vehicle: saline",206 % of control
same,T/C,"dose: 80.0 mg/kg/injection, schedule: Q01DX009 (ip), vehicle: sodium bicarbonate",169 % of control
same,T/C,"dose: 160.0 mg/kg/injection, schedule: Q01DX009 (ip), vehicle: sodium bicarbonate",198 % of control
same,T/C,"dose: 320.0 mg/kg/injection, schedule: Q01DX009 (ip), vehicle: saline",87 % of control
same,T/C,"dose: 320.0 mg/kg/injection, schedule: Q01DX009 (ip), vehicle: sodium bicarbonate",93 % of control
CCOC(=O)CNC1CC(O[C@H]2C[C@](O)(C(C)=O)Cc3c(O)c4c(c(O)c32)C(=O)c2c(OC)cccc2C4=O)OC(C)C1O (some centres not stated),T/C,"dose: 25.0 mg/kg/injection, schedule: Q04DX003 (ip), vehicle: Klucel (hydroxypropylcellulose) (HPC)",103 % of control
same,T/C,"dose: 50.0 mg/kg/injection, schedule: Q04DX003 (ip), vehicle: Klucel (hydroxypropylcellulose) (HPC)",110 % of control
same,T/C,"dose: 100.0 mg/kg/injection, schedule: Q04DX003 (ip), vehicle: Klucel (hydroxypropylcellulose) (HPC)",109 % of control
same,T/C,"dose: 200.0 mg/kg/injection, schedule: Q04DX003 (ip), vehicle: Klucel (hydroxypropylcellulose) (HPC)",100 % of control
O=C1c2ccccc2C(=O)c2c(Cl)ccc(O)c21,T/C,[4],98 % of control and 94 % of control
same,T/C,"dose: 100.0 mg/kg/injection, schedule: Q01DX009 (ip), vehicle: saline with Tween-80",99 % of control and 92 % of control
same,T/C,"dose: 200.0 mg/kg/injection, schedule: Q01DX009 (ip), vehicle: saline with Tween-80",104 % of control and 112 % of control
same,T/C,"dose: 400.0 mg/kg/injection, schedule: Q01DX009 (ip), vehicle: saline with Tween-80",111 % of control and 112 % of control
Cc1cc(N=Nc2ccc(O)cc2C(=O)O)c([N+](=O)[O-])cc1C,T/C,[5],101 % of control
same,T/C,[6],111 % of control
same,T/C,"dose: 200.0 mg/kg/injection, schedule: Q01DX009 (ip), vehicle: Klucel (hydroxypropylcellulose) (HPC)",104 % of control
COc1ccc2c(Cc3ccccc3)c3[n+](cc2c1OC)CCc1cc2c(cc1-3)OCO2,T/C,"dose: 1.56 mg/kg/injection, schedule: Q01DX005 (ip), vehicle: Klucel (hydroxypropylcellulose) (HPC)",113 % of control
same,T/C,"dose: 3.12 mg/kg/injection, schedule: Q01DX005 (ip), vehicle: Klucel (hydroxypropylcellulose) (HPC)",115 % of control
same,T/C,"dose: 6.25 mg/kg/injection, schedule: Q01DX005 (ip), vehicle: Klucel (hydroxypropylcellulose) (HPC)",113 % of control and 115 % of control
same,T/C,"dose: 12.5 mg/kg/injection, schedule: Q01DX005 (ip), vehicle: Klucel (hydroxypropylcellulose) (HPC)",118 % of control
CNCC(OC)c1ccc(O)c(O)c1 (configuration not stated),T/C,"dose: 100.0 mg/kg/injection, schedule: Q01DX009 (ip), vehicle: saline",104 % of control and 107 % of control
same,T/C,"dose: 200.0 mg/kg/injection, schedule: Q01DX009 (ip), vehicle: saline",107 % of control and 118 % of control
O=C(O)/C=C/c1c[nH]c(=O)[nH]c1=O,T/C,[1],107 % of control
same,T/C,[2],100 % of control
same,T/C,[3],89 % of control
COc1c2occc2c(NC(=O)CCl)c2ccc(=O)oc12,T/C,"dose: 100.0 mg/kg/injection, schedule: Q04DX002 (ip), vehicle: saline with Tween-80",100 % of control
same,T/C,"dose: 200.0 mg/kg/injection, schedule: Q04DX002 (ip), vehicle: saline with Tween-80",93 % of control
N#CC(C(=O)CCCC(=O)Nc1ccccc1[N+](=O)[O-])c1ccc(Cl)cc1Cl (configuration not stated),T/C,[1],106 % of control
same,T/C,[2],104 % of control
same,T/C,[3],101 % of control
O=C(c1cc2c(cc1[N+](=O)[O-])OCO2)N1CCc2ccccc21,T/C,"dose: 3.13 mg/kg/injection, schedule: Q01DX009 (ip), vehicle: saline with Tween-80",99 % of control
same,T/C,"dose: 6.25 mg/kg/injection, schedule: Q01DX009 (ip), vehicle: saline with Tween-80",99 % of control
same,T/C,[7],96 % of control
same,T/C,[8],99 % of control
same,T/C,[9],94 % of control
same,T/C,[10],100 % of control
same,T/C,[11],107 % of control
same,T/C,"dose: 200.0 mg/kg/injection, schedule: Q01DX009 (ip), vehicle: other",89 % of control
COc1ccc(C(Cl)c2ccc(OC)c(OC)c2)cc1OC,T/C,[8],100 % of control
same,T/C,[10],90 % of control
same,T/C,[11],97 % of control
O=[N+]([O-])c1cccc(SNCCO)c1,T/C,[7],108 % of control
same,T/C,[9],100 % of control
same,T/C,[4],100 % of control and 94 % of control
Nc1nc(CCl)nc(Nc2ccccc2)n1,T/C,"dose: 12.5 mg/kg/injection, schedule: Q01DX009 (ip), vehicle: Klucel (hydroxypropylcellulose) (HPC)",101 % of control
same,T/C,"dose: 25.0 mg/kg/injection, schedule: Q01DX009 (ip), vehicle: Klucel (hydroxypropylcellulose) (HPC)",101 % of control
same,T/C,[5],101 % of control
same,T/C,[6],99 % of control
